This note sets out measurements from patent publication US20260305608A1, “MIXTURE COMBINATIONS FOR CROP PROTECTION” (ADAMA MAKHTESHIM LTD., priority 2023, published 2026).

Experiment [1] relates to S. littoralis. In words: Synergistic activity against S. littoralis, 2 days after larvae exposition (% control; Colby). The experiment is classed as in vivo, Spodoptera littoralis. The method, then:
(§1) A mixture combination were prepared by thoroughly mixing Tau-fluvalinate (weight %) with a crop protection chemical compound such as Flupyrimin, Isocycloseram, Methoxyfenozide and Garlic extract (weight %).
(§2) Different concentrations of each of the active ingredients may be applied to different species of insects. The percent controls are determined sometime after treatment.
(§3) A synergistic effect exists whenever the action of a combination of active ingredients is greater than the sum of the action of each of the ingredients alone. Therefore, a synergistic combination is a combination of active ingredients having an action that is greater than the sum of the action of each active ingredient alone, and a synergistically effective amount is an effective amount of a synergistic combination.
(§4) Colby's method is used to determine if synergy exists for a combination of active ingredients. According to Colby, the expected action (E) of active ingredients A+B is:
(§5) E=A+B−(AB/100) • where E=expected efficacy, A and B=the efficacy of two active ingredients A and B at a given dose.
(§6) When the percentage of control observed (O) for the combination is greater than the expected (E) percentage, there is a synergistic effect. The synergism ratio (R) is calculated as the ratio between the […].
(§7) The insecticidal compounds A (Tau fluvalinate) and B (mix partner) are formulated as equivalent compositions to eliminate the effects of differing formulation inerts on biological activity. Efficacy of the insecticidal compositions is evaluated with reference to a scale of 0% to 100% in comparison with untreated control plots. 0 means no damage and 100 means complete destruction of the harmful pests.
(§8) The experiments were conducted by applying either by synthesis/extraction or commercially available formulations of Tau fluvalinate and other mixture partners, alone or with their tank-mixed compositions with the same weight ratio. The compositions were diluted with water or some other suitable solvents to the stated concentration of the active compounds.
(§9) Each formulation with active ingredient is diluted with water or other suitable solvent(s) to the ppm (parts per million) level and biological efficacy trials on pests are conducted.

The next experiment relates to B. tabaci. The experiment in a line: Synergistic activity against B. tabaci, 3 days after nymph exposition (% control; Colby). It is filed as in vivo, Bemisia tabaci. As for the experimental part:
as §1, §2, §3, §4, §5, §6, §7, §8, §9

Experiment [2] has as its system S. littoralis. In words: Synergistic activity against S. littoralis, 3 days after larvae exposition (% control; Colby). It is filed as in vivo, Spodoptera littoralis. As for the experimental part:
as §1, §2, §3, §4, §5, §6, §7, §8, §9

Structures are written as SMILES.

Turning to `CC(C)C(Nc1ccc(C(F)(F)F)cc1Cl)C(=O)OC(C#N)c1cccc(Oc2ccccc2)c1` (mixture of isomers) [Tau- Fluvalinate, (RS)-α-Cyano-3-phenoxybenzyl N-(2-chloro-α,α,α-trifluoro-p-tolyl)-D-valinate], the “Observed % control (O)” value in the experiment with S. littoralis [1] (Table 1B, 10 ppm) amounted to 43%; in the experiment with S. littoralis [1] (Table 4B, 8 ppm), 45%; with S. littoralis [1] (Table 4B, 16 ppm) it was 62.5%; with B. tabaci (Table 1A, 0.1 ppm), 14%; with B. tabaci (Table 2, 20 ppm) it was 28.1%; in the experiment on B. tabaci (Table 4A, 0.2 ppm) it was 10.4%. In addition, the “Observed % control (O)” value is on record as 2.5% in the experiment with S. littoralis [2] (Table 3, 0.2 ppm); 22.5% in the experiment on S. littoralis [2] (Table 3, 2 ppm); 67.5% with S. littoralis [2] (Table 3, 10 ppm).
In the case of `O=C(/N=c1\ccccn1Cc1ccc(Cl)nc1)C(F)(F)F` [Flupyrimin], the “Observed % control (O)” value in the experiment with S. littoralis [1] (Table 1B, 1 ppm) amounted to 0%; with S. littoralis [1] (Table 1B, 10 ppm) it was 0%; with S. littoralis [1] (Table 1B, 100 ppm) it was 18%.
Turning to `CCN1OC[C@@H](NC(=O)c2ccc(C3=NO[C@@](c4cc(Cl)c(F)c(Cl)c4)(C(F)(F)F)C3)cc2C)C1=O` [Isocycloseram], the “Observed % control (O)” value in the experiment on S. littoralis [1] (Table 4B, 8 ppm) came to 12.2%; in the experiment on B. tabaci (Table 4A, 0.2 ppm) it was 25.5%.
Take `COc1cccc(C(=O)NN(C(=O)c2cc(C)cc(C)c2)C(C)(C)C)c1C` [Methoxyfenozide]: the “Observed % control (O)” value in the experiment on S. littoralis [2] (Table 3, 1 ppm) is listed as 52.5%; in the experiment on S. littoralis [2] (Table 3, 2 ppm), 70%.
